In patent US8609725B2, “Method of using beta-hydroxy-beta-methylbutyrate for reducing tumor growth rate” (Abbott Laboratories, priority 2004, dated 2013):

Columns and labels:
[1] = tested on: p42, ATPase subunit of the 19S regulator; assay: Western blotting of p42 in gastrocnemius muscle of MAC16 mice; type: in vivo, NMRI mice
[2] = tested on: ubiquitin-conjugating enzyme, E214k; assay: Western blotting of E214k in gastrocnemius muscle of MAC16 mice; type: in vivo, NMRI mice; conditions: HMB 0.25 g/kg, EPA 0.6 g/kg or combination, 3 days
Experimental: For Western blotting samples of soleus muscle cytosolic protein (2 to 5 μg), obtained from the above assay, were resolved on 10% SDS-PAGE and transferred to 0.45 μm nitrocellulose membrane (HybondTM, Amersham Life Science Products, Bucks, United Kingdom), which had been blocked with 5% Marvel in PBS. The primary antibodies for MSS1 and p42 were used at a dilution of 1:5000, for 20S proteasome α-subunits at 1:1500 and for β-subunits at 1:1000, while the antibody for […] was used at a dilution of 1:500. The secondary antibodies were used at a dilution of 1:2000. Mouse monoclonal antibodies to 20S proteasome subunits a 1, 2, 3, 5, 6 and 7 (clone MCP 231), 20S proteasome subunit β3 (HC10), 19S regulator ATPase subunit […]1; clone MSS1-104) and 19S regulator ATPase subunit Rpt 4 ([…], p42; clone p42-23) were purchased from Affiniti Research Products, Exeter, United Kingdom. Rabbit polyclonal antisera to ubiquitin-conjugating enzyme E2 (anti-UBC2 antibody) was a gift from Dr. Simon Wing, McGill University, Montreal, Quebec, Canada. Peroxidase-conjugated goat anti-rabbit and rabbit anti-mouse secondary antibodies were from Dako Ltd., Cambridge, United Kingdom. Incubation was carried out for 2 h at room temperature, and developed by chemiluminescence (ECL; Amersham).

[3] = tested on: C2C12 myotubes; assay: PIF-induced total protein degradation in C2C12 myotubes; type: cell-based, murine
Experimental: C2C12 myotubes were routinely passaged in DMEM supplemented with 10% FCS, glutamine and 1% penicillin-streptomycin under an atmosphere of 10% CO2 in air at 37 °C. Myotubes were formed by allowing confluent cultures to differentiate in DMEM containing 2% HS, with medium changes every 2 days.
PIF was purified from solid MAC16 tumors (Todorov, P. et al. Characterization of a cancer cachectic factor. Nature, 379: 739-742, 1996.) excised from mice with a weight loss of 20 to 25%. Tumors were homogenised in 10 mM Tris-HCl, pH 8.0, containing 0.5 mM phenylmethylsulfonyl fluoride, 0.5 mM EGTA and 1 mM dithiothreitol at a concentration of 5 ml/g tumor. […]
Myotubes in six-well multidishes were labeled with L-[2, 6^−3H] phenylalanine (0.67 mCi/mmole) for 24 h in 2 ml DMEM containing 2% HS. They were then washed three times in PBS followed by a 2 h incubation at 37° C. in DMEM without phenol red until no more radioactivity appeared in the supernatant. These myotubes were then further incubated for 24 h in the presence of PIF, with and without EPA or HMB, in fresh DMEM without phenol red, to prevent quenching of counts, and in the presence of 2 mM cold phenylalanine to prevent reincorporation of radioactivity. The amount of radioactivity released into the medium was expressed as a percentage of control cultures not exposed to PIF to determine total protein degradation.

[4] = tested on: proteasome 20S α subunits, β subunits and p42; assay: Western blot of PIF-induced proteasome subunit expression in C2C12 myotubes; type: cell-based, murine; conditions: 50 μM; PIF at 4.2 and 10 nM
Experimental: (§1) For Western blot analysis, cytosolic protein (2 to 5 μg) obtained for the above assay were resolved on 10% SDS-PAGE and transferred to 0.45 μm nitrocellulose membrane, which had been blocked with 5% Marvel in PBS, at 4° C. overnight. The primary antibodies were used at a dilution of 1:100 (anti-actin and PKCα); 1:500 (anti-ERK1 and 2); 1:1000 (anti-20S proteasome β-subunit and I-κBα); 1:1500 (anti-20S proteasome α-subunit) or 1:5000 (anti-p42), while the secondary antibodies were used at a dilution of 1:2000. Incubation was carried out for 2 h at room temperature and development was by ECL. Loading was quantitated by actin concentration.

[5] = tested on: p42/44 MAPK (ERK1, ERK2); assay: PIF-induced phosphorylation of ERK 1/2 (p42/44 MAPK) in murine myotubes; type: cell-based
Experimental: as §1
(§2) The in vitro study described in Example III above also evaluated the effect of HMB on molecules that are key mediators in the pathway of inflammation. This experiment was conducted as described in Example III.

[6] = biological target: T1, PKCα (Mus musculus, UniProt P20444); assay: PIF-stimulated translocation of PKCα from cytoplasm to plasma membrane in murine myotubes; type: cell-based
T1 construct: PIF stimulates translocation of PKCα from the cytoplasm to the plasma membrane; endogenous in cells; host or cells: murine myotubes (C2C12)
Experimental: as §1, §2

[7] = tested on: phospholipase A (PLA); assay: Arachidonic acid release / PLA activation; type: cell-based, murine; conditions: mechanism statement
Experimental: For measurement of arachidonic acid release, myotubes in six-well multi dishes containing 2 ml DMEM with 2% HS were labeled for 24 h with 10 μM arachidonic acid (containing 1 μCi of [^3H] arachidonate/ml) (Smith, H. et al. Effect of a cancer cachectic factor on protein synthesis/degradation in murine C2C12 myoblasts: Modulation by eicosapentaenoic acid. Cancer Res., 59: 5507-5513, 1999). Cells were then washed extensively with PBS to remove traces of unincorporated [^3H] arachidonate and either EPA or HMB was added 2 h prior to PIF. After a further 24 h 1 ml of medium was removed to determine the radioactivity released.

[8] = tested on: rats and chicks; conditions: cited from earlier work
[9] = avg., 1996 abstract, normal rats and chicks

attenuation of PIF-stimulated translocation of PKCα ([6]; 25 μM HMB): less effective
attenuation of PIF-stimulated translocation of PKCα ([6]; 50 μM): effectively attenuated
activation of PLA or release of AA [7]: not preventing
SMILES: CC(C)(O)CC(=O)O [HMB, beta-hydroxy-beta-methylbutyric acid]
expression of p42 ([1]; HMB 0.25 g/kg, EPA 0.6 g/kg or combination, 3 days): equally effective
reduction of protein expression of p42 ([1]; summary of Examples I-IV): at least 50%
expression of E214k [2]: reduced
attenuation of PIF induced protein degradation ([3]; 25 μM HMB, at low, but not at high concentrations of PIF): some attenuation
attenuation of PIF induced protein degradation ([3]; 50 μM, 24 h after addition of PIF): equally effective
attenuation of PIF-increased expression of proteasome 20S α subunits, β subunits and p42 [4]: attenuated
attenuation of PIF-induced phosphorylation of p42/44 ([5]; 25 μM HMB): not HMB at 25 μM
attenuation of PIF-induced phosphorylation of p42/44 ([5]; 50 μM): completely attenuated
change of protein breakdown [8, 9]: −18%
stimulation of protein synthesis [8, 9]: 6%
effect on protein synthesis ([8]; later paper (2000), same model in rats and chicks): no significant effect
